How the values were obtained:
Assay type in all cases: functional
HL-60(TB) = assay: Antiproliferative activity against human HL-60(TB) cells assessed as cell viability at 10^-5 M incubated for 48 hrs by sulforhodamine B assay relative to control; conditions: HL-60, 48 h, read-out: Activity
OVCAR-4 = assay: Antiproliferative activity against human OVCAR4 cells assessed as cell viability at 10^-5 M incubated for 48 hrs by sulforhodamine B assay relative to control; conditions: OVCAR-4, 48 h, read-out: Activity
BT-549 = assay: Antiproliferative activity against human BT549 cells assessed as cell viability at 10^-5 M incubated for 48 hrs by sulforhodamine B assay relative to control; conditions: BT-549, 48 h, read-out: Activity
Hs-578T = assay: Antiproliferative activity against human Hs 578T cells assessed as cell viability at 10^-5 M incubated for 48 hrs by sulforhodamine B assay relative to control; conditions: read-out: Activity
MOLT-4 = assay: Antiproliferative activity against human MOLT4 cells assessed as cell viability at 10^-5 M incubated for 48 hrs by sulforhodamine B assay relative to control; conditions: MOLT-4, 48 h, read-out: Activity
UACC-62 = assay: Antiproliferative activity against human UACC62 cells assessed as cell viability at 10^-5 M incubated for 48 hrs by sulforhodamine B assay relative to control; conditions: UACC-62, 48 h, read-out: Activity
HOP-62 = assay: Antiproliferative activity against human HOP62 cells assessed as cell viability at 10^-5 M incubated for 48 hrs by sulforhodamine B assay relative to control; conditions: HOP-62, 48 h, read-out: Activity
HCT-15 = assay: Antiproliferative activity against human HCT15 cells assessed as cell viability at 10^-5 M incubated for 48 hrs by sulforhodamine B assay relative to control; conditions: HCT-15, 48 h, read-out: Activity
Malme-3M = assay: Antiproliferative activity against human MALME-3M cells assessed as cell viability at 10^-5 M incubated for 48 hrs by sulforhodamine B assay relative to control; conditions: read-out: Activity
SNB-75 = assay: Antiproliferative activity against human SNB75 cells assessed as cell viability at 10^-5 M incubated for 48 hrs by sulforhodamine B assay relative to control; conditions: SNB-75, 48 h, read-out: Activity
SNB-19 = assay: Antiproliferative activity against human SNB19 cells assessed as cell viability at 10^-5 M incubated for 48 hrs by sulforhodamine B assay relative to control; conditions: SNB-19, 48 h, read-out: Activity
CAKI-1 = assay: Antiproliferative activity against human Caki1 cells assessed as cell viability at 10^-5 M incubated for 48 hrs by sulforhodamine B assay relative to control; conditions: CAKI-1, 48 h, read-out: Activity
A498 = assay: Antiproliferative activity against human A498 cells assessed as cell viability at 10^-5 M incubated for 48 hrs by sulforhodamine B assay relative to control; conditions: A498, 48 h, read-out: Activity
786-0 = assay: Antiproliferative activity against human 786-0 cells assessed as cell viability at 10^-5 M incubated for 48 hrs by sulforhodamine B assay relative to control; conditions: 786-0, 48 h, read-out: Activity
MDA-MB-231 = assay: Antiproliferative activity against human MDA-MB-231 cells assessed as cell viability at 10^-5 M incubated for 48 hrs by sulforhodamine B assay relative to control; conditions: MDA-MB-231, 48 h, read-out: Activity
NCI-H460 = assay: Antiproliferative activity against human NCI-H460 cells assessed as cell viability at 10^-5 M incubated for 48 hrs by sulforhodamine B assay relative to control; conditions: NCI-H460, 48 h, read-out: Activity
HOP-92 = assay: Antiproliferative activity against human HOP92 cells assessed as cell viability at 10^-5 M incubated for 48 hrs by sulforhodamine B assay relative to control; conditions: HOP-92, 48 h, read-out: Activity
SK-MEL-2 = assay: Antiproliferative activity against human SK-MEL-2 cells assessed as cell viability at 10^-5 M incubated for 48 hrs by sulforhodamine B assay relative to control; conditions: SK-MEL-2, 48 h, read-out: Activity
SF-268 = assay: Antiproliferative activity against human SF268 cells assessed as cell viability at 10^-5 M incubated for 48 hrs by sulforhodamine B assay relative to control; conditions: SF-268, 48 h, read-out: Activity
MDA-MB-435 = assay: Antiproliferative activity against human MDA-MB-435 cells assessed as cell viability at 10^-5 M incubated for 48 hrs by sulforhodamine B assay relative to control; conditions: MDA-MB-435, 48 h, read-out: Activity
MCF7 = assay: Antiproliferative activity against human MCF7 cells assessed as cell viability at 10^-5 M incubated for 48 hrs by sulforhodamine B assay relative to control; conditions: MCF7, 48 h, read-out: Activity
SF-539 = assay: Antiproliferative activity against human SF539 cells assessed as cell viability at 10^-5 M incubated for 48 hrs by sulforhodamine B assay relative to control; conditions: SF-539, 48 h, read-out: Activity
OVCAR-8 = assay: Antiproliferative activity against human OVCAR8 cells assessed as cell viability at 10^-5 M incubated for 48 hrs by sulforhodamine B assay relative to control; conditions: OVCAR-8, 48 h, read-out: Activity
RXF 393 = assay: Antiproliferative activity against human RXF393 cells assessed as cell viability at 10^-5 M incubated for 48 hrs by sulforhodamine B assay relative to control; conditions: RXF 393, 48 h, read-out: Activity
HT-29 = assay: Antiproliferative activity against human HT-29 cells assessed as cell viability at 10^-5 M incubated for 48 hrs by sulforhodamine B assay relative to control; conditions: HT-29, 48 h, read-out: Activity
U-251 = assay: Antiproliferative activity against human U251 cells assessed as cell viability at 10^-5 M incubated for 48 hrs by sulforhodamine B assay relative to control; conditions: U-251, 48 h, read-out: Activity
ACHN = assay: Antiproliferative activity against human ACHN cells assessed as cell viability at 10^-5 M incubated for 48 hrs by sulforhodamine B assay relative to control; conditions: read-out: Activity
CCRF-CEM = assay: Antiproliferative activity against human CCRF-CEM cells assessed as cell viability at 10^-5 M incubated for 48 hrs by sulforhodamine B assay relative to control; conditions: read-out: Activity
SW-620 = assay: Antiproliferative activity against human SW620 cells assessed as cell viability at 10^-5 M incubated for 48 hrs by sulforhodamine B assay relative to control; conditions: SW-620, 48 h, read-out: Activity
TK-10 = assay: Antiproliferative activity against human TK10 cells assessed as cell viability at 10^-5 M incubated for 48 hrs by sulforhodamine B assay relative to control; conditions: TK-10, 48 h, read-out: Activity
K562 = assay: Antiproliferative activity against human K562 cells assessed as cell viability at 10^-5 M incubated for 48 hrs by sulforhodamine B assay relative to control; conditions: K562, 48 h, read-out: Activity
DU-145 = assay: Antiproliferative activity against human DU145 cells assessed as cell viability at 10^-5 M incubated for 48 hrs by sulforhodamine B assay relative to control; conditions: DU-145, 48 h, read-out: Activity

| Structure (SMILES) | viability at 10 µM (HL-60(TB)) | viability at 10 µM (OVCAR-4) | viability at 10 µM (BT-549) | viability at 10 µM (Hs-578T) | viability at 10 µM (MOLT-4) | viability at 10 µM (UACC-62) | viability at 10 µM (HOP-62) | viability at 10 µM (HCT-15) | viability at 10 µM (Malme-3M) | viability at 10 µM (SNB-75) | viability at 10 µM (SNB-19) | viability at 10 µM (CAKI-1) | viability at 10 µM (A498) | viability at 10 µM (786-0) | viability at 10 µM (MDA-MB-231) | viability at 10 µM (NCI-H460) | viability at 10 µM (HOP-92) | viability at 10 µM (SK-MEL-2) | viability at 10 µM (SF-268) | viability at 10 µM (MDA-MB-435) | further results |
| --- | --- | --- | --- | --- | --- | --- | --- | --- | --- | --- | --- | --- | --- | --- | --- | --- | --- | --- | --- | --- | --- |
| CCOc1c(OC)cc2c(c1O)C(=O)NC1C2CC(O)C(O)C1O (racemic) | 100% | 107% | 99.6% | 100% | 92.4% | 93.1% | 98.6% | 102% | 102% | 93.5% | 99% | 91.3% | 99.5% | 102% | 106% | 112% | 85.2% | 106% | 102% | 108% | viability at 10 µM (MCF7): 92.1%; viability at 10 µM (SF-539): 97.7%; viability at 10 µM (OVCAR-8): 101%; viability at 10 µM (RXF 393): 109%; viability at 10 µM (HT-29): 100%; viability at 10 µM (U-251): 96.7%; viability at 10 µM (ACHN): 103%; viability at 10 µM (CCRF-CEM): 103%; viability at 10 µM (SW-620): 107%; viability at 10 µM (TK-10): 93.9%; viability at 10 µM (K562): 91.2%; viability at 10 µM (DU-145): 109% |
| O=C1NC2C(CC(O)C(O)C2O)c2cc3c(c(O)c21)OCO3 (racemic) | -37.8% | -23.7% | -12.5% | -14.2% | -6.14% | -48.4% | -18.9% | 1.81% | -48.7% | -25.3% | -8.68% | -7.77% | -53.4% | -10.8% | -27.9% | -15.1% | -19% | -63.6% | -4.43% | -42.2% | viability at 10 µM (MCF7): 1.73%; viability at 10 µM (SF-539): -29.7%; viability at 10 µM (OVCAR-8): -7.71%; viability at 10 µM (RXF 393): -37.3%; viability at 10 µM (HT-29): -14.9%; viability at 10 µM (U-251): -10.5%; viability at 10 µM (ACHN): -45.5%; viability at 10 µM (CCRF-CEM): 2.84%; viability at 10 µM (SW-620): -0.05%; viability at 10 µM (TK-10): -12.6%; viability at 10 µM (K562): 1.86%; viability at 10 µM (DU-145): -19.1% |
| COc1cc2c(c(OC)c1OC)C(=O)NC1C2CC(O)C(O)C1O (racemic) | 99.3% | 107% | 110% | 108% | 104% | 94.1% | 102% | 104% | 108% | 102% | 99% | 94.1% | 112% | 94.9% | 106% | 110% | 91.4% | 117% | 103% | 110% | viability at 10 µM (MCF7): 96.1%; viability at 10 µM (SF-539): 100%; viability at 10 µM (OVCAR-8): 97.3%; viability at 10 µM (RXF 393): 102%; viability at 10 µM (HT-29): 107%; viability at 10 µM (U-251): 98.9%; viability at 10 µM (ACHN): 99.7%; viability at 10 µM (CCRF-CEM): 104%; viability at 10 µM (SW-620): 109%; viability at 10 µM (TK-10): 98.5%; viability at 10 µM (K562): 96.6%; viability at 10 µM (DU-145): 110% |

From ChEMBL document CHEMBL4346705, “(±)-trans-Dihydronarciclasine and (±)-trans-dihydrolycoricidine analogues modified in their ring A: Evaluation of their anticancer activity and a SAR study” (2019)
